# Laboratory results reported in patent US10035808B1, “Isatin peroxo compounds with antibacterial activities and a method of preparing the same” (SHAANXI UNIVERSITY OF SCIENCE AND TECHNOLOGY, priority 2018, dated 2018).
# Columns and labels:
# [1] = tested on: Enterotoxigenic Escherichia coli (ETEC); assay: Bacteriostatic circle test, ETEC; type: cell-based; details: bacteriostatic circle method; strain ETEC; DMSO negative control
# Protocol: (§1) The compounds of the present invention have been tested for antibacterial activity, and a bacteriostatic circle method was used to determine the antibacterial activity.
# (§2) Test strains and medium: Enteropathogenic Escherichia coli (EPEC), Enterotoxigenic Escherichia coli (ETEC), Enteroinvasive Escherichia coli (EIEC), Enterohemorrhagic Escherichia coli (EHEC); beef peptone medium.
# (§3) Preparation of test strains: (1) test strains were placed in culture medium in test tubes in an incubator (bacteria: 37° C., 24 hours; fungi: 28° C., 48 hours), and stored at 0-4° C.; (2) the test strains were inoculated with a small loop in test tubes containing 9 mL sterile water, mixing well to make suspensions, and adjusting the concentration to 10^6-10^7 cfu·mL^−1. The suspensions were used for bacteriostatic circle test.
# (§4) Antibacterial activity determination: solvent dimethyl sulfoxide (DMSO) was used as a negative control, the sizes of antibacterial ring diameters indicated the strength of the antibacterial activities.
# [2] = tested on: Enterohemorrhagic Escherichia coli (EHEC); assay: Bacteriostatic circle test, EHEC; type: cell-based; details: bacteriostatic circle method; strain EHEC; DMSO negative control
# Protocol: as §1, §2, §3, §4
# [3] = tested on: Enteropathogenic Escherichia coli (EPEC); assay: Bacteriostatic circle test, EPEC; type: cell-based; details: bacteriostatic circle method; strain EPEC; DMSO negative control
# Protocol: as §1, §2, §3, §4
# [4] = tested on: Enteroinvasive Escherichia coli (EIEC); assay: Bacteriostatic circle test, EIEC; type: cell-based; details: bacteriostatic circle method; strain EIEC; DMSO negative control
# Protocol: as §1, §2, §3, §4
# [5] = tested on: all the four tested bacteria (EPEC, ETEC, EIEC, EHEC); assay: Bacteriostatic circle test, summary over all four tested bacteria; type: cell-based, Escherichia coli
# Protocol: as §1, §2, §3, §4
Structure (SMILES),Circle Size [1] [mm],Circle Size [2] [mm],Circle Size [3] [mm],Circle Size [4] [mm],antibacterial activities (result in words) [5]
"O=C(C1=C(c2ccccc2)OOc2[nH]c3ccc(Cl)cc3c21)c1ccccc1 [Compound 5, (6-chloro-3-phenyl-9H-[1,2]dioxino[3,4-b]indol-4-yl)(phenyl)methanone]",13.5,14.5,13,14,
"O=C(C1=C(c2ccccc2)OOc2[nH]c3c(F)cccc3c21)c1ccccc1 [Compound 12, (8-fluoro-3-phenyl-9H-[1,2]dioxino[3,4-b]indol-4-yl)(phenyl)methanon]",,15,14,14.5,
"Cc1ccc2[nH]c3c(c2c1)C(C(=O)c1ccccc1)=C(c1ccccc1)OO3 [Compound 6, (6-methyl-3-phenyl-9H-[1,2]dioxino[3,4-b]indol-4-yl)(phenyl)methanone]",15.5,16,15,16,
"O=C(C1=C(c2ccccc2)OOc2[nH]c3cc(Cl)ccc3c21)c1ccccc1 [Compound 11, (7-chloro-3-phenyl-9H-[1,2]dioxino[3,4-b]indol-4-yl)(phenyl)methanone]",12.5,11.5,12,11.5,
"CC(=O)C1=C(C)OOc2[nH]c3cc(Cl)ccc3c21 [Compound 8, 1-(7-chloro-3-methyl-9H-[1,2]dioxino[3,4-b]indol-4-yl)ethanone]",14,13,13,13.5,
"CC(=O)C1=C(C)OOc2[nH]c3ccc(Cl)cc3c21 [Compound 2, 1-(6-chloro-3-methyl-9H-[1,2]dioxino[3,4-b]indol-4-yl)ethanone]",15.5,16.5,15,17,good antibacterial activities
"O=C(C1=C(c2ccccc2)OOc2[nH]c3ccccc3c21)c1ccccc1 [Compound 4, phenyl(3-phenyl-9H-[1,2]dioxino[3,4-b]indol-4-yl)methanone]",11,12.5,12,11.5,
"CC(=O)C1=C(C)OOc2[nH]c3ccccc3c21 [Compound 1, 1-(3-methyl-9H-[1,2]dioxino[3,4-b]indol-4-yl)ethanone]",19,23,20,21,good antibacterial activities
"CC(=O)C1=C(C)OOc2[nH]c3c(F)cccc3c21 [Compound 9, 1-(8-fluoro-3-methyl-9H-[1,2]dioxino[3,4-b]indol-4-yl)ethanone]",15.5,14.5,15,14,
"CC(=O)C1=C(C)OOc2[nH]c3ccc(C)cc3c21 [Compound 3, 1-(3,6-dimethyl-9H-[1,2]dioxino[3,4-b]indol-4-yl)ethanone]",18,17,17.5,17,good antibacterial activities
"O=C(C1=C(c2ccccc2)OOc2[nH]c3ccc(F)cc3c21)c1ccccc1 [Compound 10, (6-fluoro-3-phenyl-9H-[1,2]dioxino[3,4-b]indol-4-yl)(phenyl)methanone]",11,10.5,10,11.5,
"CC(=O)C1=C(C)OOc2[nH]c3ccc(F)cc3c21 [Compound 7, 1-(6-fluoro-3-methyl-9H-[1,2]dioxino[3,4-b]indol-4-yl)ethanone]",17.5,17,17,16.5,
